For assay [1], the target named is CrufCSP1. Nature of the assay: Binding of fluorescent probe 1-NPN to recombinant CrufCSP1 (Scatchard plot). More on the design: species or system Cotesia ruficrus. The settings on record: CrufCSP1 2 μM titrated with 1-NPN 2 to 20 μM, read-out: dissociation constant toward 1-NPN. The protocol: The binding affinity between CrufCSP1 and the selected volatile compounds was determined using an F-7000 fluorescence spectrophotometer (Hitachi, Tokyo, Japan). N-phenyl-1-naphthylamine (1-NPN), a fluorescence probe, was used to assess the binding affinity. A total of 24 volatiles, i.e., alcohols (heptanol, undecanol, tetradecanol, cis-3-hexen-1-ol, 1,14-tetradecanediol, 2-hexanol, phytol, and linalool), aldehydes (hexanal, heptanal, octanal, nonanal, decanal, dodecanal, pentadecanal, benzaldehyde, p-methyl benzaldehyde, and trans-2-hexenal), and others (2-hydroxy-5-methylacetophenone, 2-heptanone, palmitic acid, N,N-dimethylcaprylamide, DMNT, and cis-3-hexenyl acetate), were selected for the fluorescence binding assay with CrufCSP1. […]
To prepare the tested chemicals, all were dissolved in chromatographic grade methanol to achieve a 100 mM solution, which was then stored at −20 °C. […] For the fluorescence competitive binding assays, each ligand was added to a mixture containing CrufCSP1 (2 μM) and 1-NPN (2 μM) at concentrations ranging from 0 to 30 μM. The maximum fluorescence intensity was then recorded and plotted against the ligand concentration based on the average of the three repeats. […]

Assay [2] deals with CrufCSP1. Nature of the assay: Fluorescence competitive binding assay with 1-NPN as probe. As to conditions: for IC50: recombinant CrufCSP1 2 μM, ligand 0 to 30 μM, tris-HCl pH 7.4. More on the design: species or system Cotesia ruficrus. As for the experimental part:
The binding affinity between CrufCSP1 and the selected volatile compounds was determined using an F-7000 fluorescence spectrophotometer (Hitachi, Tokyo, Japan). N-phenyl-1-naphthylamine (1-NPN), a fluorescence probe, was used to assess the binding affinity. A total of 24 volatiles, i.e., alcohols (heptanol, undecanol, tetradecanol, cis-3-hexen-1-ol, 1,14-tetradecanediol, 2-hexanol, phytol, and linalool), aldehydes (hexanal, heptanal, octanal, nonanal, decanal, dodecanal, pentadecanal, benzaldehyde, p-methyl benzaldehyde, and trans-2-hexenal), and others (2-hydroxy-5-methylacetophenone, 2-heptanone, palmitic acid, N,N-dimethylcaprylamide, DMNT, and cis-3-hexenyl acetate), were selected for the fluorescence binding assay with CrufCSP1. Of these compounds, our research group previously identified undecanol, tetradecanol, 2-hexanol, 1,14-tetradecanediol, phytol, dodecanal, pentadecanal, p-methyl benzaldehyde, palmitic acid, 2-hydroxy-5-methylacetophenone, and N,N-dimethylcaprylamide in the larvae of S. frugiperda. The remaining compounds were chosen based on previous studies that identified them as corn volatiles.
To prepare the tested chemicals, all were dissolved in chromatographic grade methanol to achieve a 100 mM solution, which was then stored at −20 °C. Before use, this solution was diluted to 1 mM. CrufCSP1 was dissolved in 20 mM of tris-HCl (pH 7.4) and then diluted to a 2 μM working solution. To ensure the binding affinity of 1-NPN to the protein, the CrufCSP1 solution was titrated with 1-NPN with a concentration range of 2 to 20 μM. For the fluorescence competitive binding assays, each ligand was added to a mixture containing CrufCSP1 (2 μM) and 1-NPN (2 μM) at concentrations ranging from 0 to 30 μM. The maximum fluorescence intensity was then recorded and plotted against the ligand concentration based on the average of the three repeats. The dissociation constant (Kd) for binding between CrufCSP1 and 1-NPN was calculated using the Scatchard linear regressive equation in the software GraphPad Prism 8.0 (GraphPad Software Inc., La Jolla, CA, USA). Additionally, the ligand-binding affinity (Ki) was calculated utilizing the following equation: Ki=[IC50]/(1+[1−NPN]/K1−NPN) where IC50 represents the maximum concentration at which the ligand replaces 50% of the 1 − NPN fluorescence, [1 − NPN] denotes the free concentration of 1-NPN, and K1-NPN represents the dissociation constant of the protein/1 − NPN complex.

Where [3] appears, read: calculated from IC50: Ki=[IC50]/(1+[1-NPN]/K1-NPN), CrufCSP1 2 μM, 1-NPN 2 μM.

A word on the Ki: it is a measure of affinity in units of concentration, obtained from inhibition or displacement. As usually defined, the IC50 is the concentration needed to halve the response being measured.

Read-outs that look alike come from different tables or passages of the source. A value given as a limit tells only on which side of the number the result lay.

With `c1ccc(Nc2cccc3ccccc23)cc1` [1-NPN, N-phenyl-1-naphthylamine], at CrufCSP1 [1], the Kd stood at 7.67 µM.
On to `OCCCCCCCCCCCCCCO` [1,14-Tetradecanediol], for which the Ki at CrufCSP1 [2] (setting [3]) was more than 50 µM. The IC50 at CrufCSP1 [2] (1-NPN 2 μM) was more than 50 µM.
For `CCCCCCCO` [Heptanol], the Ki at CrufCSP1 [2] (setting [3]) was 27.7 µM. For the same molecule, the IC50 on CrufCSP1 [2] (1-NPN 2 μM) is 31.6 µM.
On the same counts, the results for `CCCCCCCCCCCCCCCC(=O)O` [Palmitic acid] are more than 50 µM and more than 50 µM.
As for `CC(=O)c1cc(C)ccc1O` [2-Hydroxy-5-methylacetophenone], the Ki at CrufCSP1 [2] (setting [3]) is 20 µM; on CrufCSP1 [2] (calculated from IC50: Ki=[IC50]/(1+[1-NPN]/K1-NPN), CrufCSP1 2 μM, 1-NPN 2 μM, listed as 2-hydroxy-5-methylacetophenone) it was less than 20 µM. Moreover, the IC50 at CrufCSP1 [2] (1-NPN 2 μM) was determined as 22.8 µM.
`Cc1ccc(C=O)cc1` [p-Methyl benzaldehyde] registered a Ki at CrufCSP1 [2] of 40.3 µM. Moreover, the IC50 on CrufCSP1 [2] (1-NPN 2 μM) turned out to be 46 µM.
On the same counts, the results for Phytol are more than 50 µM and more than 50 µM.
As for `CCCCCCCC(=O)N(C)C` [N,N-Dimethylcaprylamide], the Ki is 19.3 µM at CrufCSP1 [2] (setting [3]) and less than 20 µM at CrufCSP1 [2] (calculated from IC50: Ki=[IC50]/(1+[1-NPN]/K1-NPN), CrufCSP1 2 μM, 1-NPN 2 μM, listed as N,N-dimethylcaprylamide). Besides, at CrufCSP1 [2] (1-NPN 2 μM), the IC50 amounted to 22 µM.
`CCCCCCCCCCCC=O` [Dodecanal]: the Ki at CrufCSP1 [2] (setting [3]) is 36 µM. Moreover, the IC50 on CrufCSP1 [2] (1-NPN 2 μM) amounted to 41.1 µM.
Turning to `C=C/C=C(\C)CCC=C(C)C` [DMNT], the Ki on CrufCSP1 [2] was more than 50 µM. Also, the IC50 on CrufCSP1 [2] (1-NPN 2 μM) was more than 50 µM.
Turning to `C=CC(C)(O)CCC=C(C)C` (centres unmarked) [Linalool], the Ki at CrufCSP1 [2] (setting [3]) was 19.8 µM; on CrufCSP1 [2] (calculated from IC50: Ki=[IC50]/(1+[1-NPN]/K1-NPN), CrufCSP1 2 μM, 1-NPN 2 μM, listed as linalool) it was less than 20 µM. Moreover, on CrufCSP1 [2] (1-NPN 2 μM), the IC50 was determined as 22.6 µM.
Consider `CCCCC(C)O` (centres unmarked) [2-Hexanol], for which the Ki on CrufCSP1 [2] (setting [3]) was more than 50 µM. In addition, the IC50 at CrufCSP1 [2] (1-NPN 2 μM) is more than 50 µM.
`CCCCCCCCCCCCCCC=O` [Pentadecanal] yielded a Ki at CrufCSP1 [2] of 39 µM. In addition, the IC50 on CrufCSP1 [2] (1-NPN 2 μM) is 44.5 µM.
`CC/C=C\CCO` [cis-3-Hexen-1-ol]: the Ki at CrufCSP1 [2] (setting [3]) is 24.7 µM. Also, on CrufCSP1 [2] (1-NPN 2 μM), the IC50 came to 28.2 µM.
Consider `CCCCCCCCCC=O` [Decanal], for which the Ki on CrufCSP1 [2] (setting [3]) is 21.8 µM. At CrufCSP1 [2] (1-NPN 2 μM), the IC50 stood at 24.9 µM.
In the same order, the values of `CCCCCCC=O` [Heptanal] are more than 50 µM and more than 50 µM.
Consider `CCCCCCCC=O` [Octanal], for which the Ki on CrufCSP1 [2] (setting [3]) was 15 µM; at CrufCSP1 [2] (calculated from IC50: Ki=[IC50]/(1+[1-NPN]/K1-NPN), CrufCSP1 2 μM, 1-NPN 2 μM, listed as octanal) it was less than 20 µM. Also, the IC50 on CrufCSP1 [2] (1-NPN 2 μM) was found to be 17.2 µM.
As for `CCCCCCCCC=O` [Nonanal], the inhibition constant (Ki) at CrufCSP1 [2] (setting [3]) is more than 50 µM. Besides, the IC50 at CrufCSP1 [2] (1-NPN 2 μM) was more than 50 µM.
Take `O=Cc1ccccc1` [Benzaldehyde]: the Ki on CrufCSP1 [2] is 15.2 µM; at CrufCSP1 [2] (listed as benzaldehyde) it was less than 20 µM. In addition, on CrufCSP1 [2] (1-NPN 2 μM), the IC50 came to 17.4 µM.
With `CCC/C=C/C=O` [trans-2-Hexenal], the Ki is 14.5 µM at CrufCSP1 [2] and less than 20 µM on CrufCSP1 [2] (listed as trans-2-hexenal). For the same molecule, at CrufCSP1 [2] (1-NPN 2 μM), the IC50 is 16.5 µM.
For the molecule `CCCCCC(C)=O` [2-Heptanone], the Ki on CrufCSP1 [2] (setting [3]) was more than 50 µM. Moreover, on CrufCSP1 [2] (1-NPN 2 μM), the IC50 was more than 50 µM.
On to `CCCCCC=O` [Hexanal], for which the Ki on CrufCSP1 [2] (setting [3]) was 19.4 µM; at CrufCSP1 [2] (calculated from IC50: Ki=[IC50]/(1+[1-NPN]/K1-NPN), CrufCSP1 2 μM, 1-NPN 2 μM, listed as hexanal) it was less than 20 µM. The IC50 on CrufCSP1 [2] (1-NPN 2 μM) came to 22.1 µM.
`CCCCCCCCCCCO` [Undecanol]: the Ki at CrufCSP1 [2] (setting [3]) is more than 50 µM. At CrufCSP1 [2] (1-NPN 2 μM), the IC50 is more than 50 µM.
On to `CCCCCCCCCCCCCCO` [Tetradecanol], for which, on CrufCSP1 [2] (setting [3]), the Ki is more than 50 µM. Moreover, the IC50 at CrufCSP1 [2] (1-NPN 2 μM) is more than 50 µM.
Consider `CC/C=C\CCOC(C)=O` [cis-3-Hexenyl acetate], for which the Ki at CrufCSP1 [2] (setting [3]) is 29.2 µM. Besides, the IC50 at CrufCSP1 [2] (1-NPN 2 μM) turned out to be 33.4 µM.

The record behind these values is PMC10744196, “Characterization of CrufCSP1 and Its Potential Involvement in Host Location by Cotesia ruficrus (Hymenoptera: Braconidae), an Indigenous Parasitoid of Spodoptera frugiperda (Lepidoptera: Noctuidae) in China” (Insects, 2023).
